According to the supplement of paper PMC10307832:

What follows are cell lines tested with COc1nc(N)nc2c1ncn2[C@@H]1O[C@H](CO)[C@@H](O)[C@@H]1O [Nelarabine] + NC(=O)Nc1cc(-c2cccc(F)c2)sc1C(=O)N[C@H]1CCCNC1 [AZD7762] (partner 0.2 µM) (assay: relative viability (nuclei count vs DMSO), 5 days (fraction); higher = more cells survive). Details: first compound 0.1 µM.
Summary of the method: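 The day after seeding in 1536-well plates, lung cancer cell lines were treated by pin tool with a single drug, or with a fixed anchor-drug dose together with five library-drug doses (not always all listed) in √10 steps. After 5 days, a combined fix-and-stain solution (final 0.05% Triton X-100, 1% formaldehyde, 1 ug/ml Hoechst) was added. Nuclei counted on 4× images gave relative viability as treated counts over vehicle counts, reported as the median of duplicate plates.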

Q: Which relative viability does the source give for NCI-H838 here?
A: 0.955

Q: For NCI-H1355, which relative viability is on record?
A: 0.657

Q: NCI-H1395 was tested. Which relative viability did it give?
A: 0.388

Q: With NCI-H1437 as the cell line, how does the relative viability read?
A: 1.15

Q: NCI-H1651 was tested. Which relative viability did it give?
A: 0.452

Q: For NCI-H1666, which relative viability is on record?
A: 0.819

Q: How did the relative viability turn out when NCI-H1734 was run?
A: 0.484

Q: Which relative viability does the source give for NCI-H1755 here?
A: 0.425

Q: NCI-H1792 was tested. Which relative viability did it give?
A: 1.1

Q: NCI-H1793 was tested. Which relative viability did it give?
A: 0.319

Q: For NCI-H1915, which relative viability is on record?
A: 0.687

Q: Which relative viability does the source give for NCI-H1944 here?
A: 0.421

Q: With NCI-H1975 as the cell line, how does the relative viability read?
A: 0.778

Q: How did the relative viability turn out when NCI-H1993 was run?
A: 0.642

Q: Which relative viability does the source give for NCI-H2085 here?
A: 0.996

Q: NCI-H2087 was tested. Which relative viability did it give?
A: 1.37

Q: For NCI-H2126, which relative viability is on record?
A: 1.05

Q: How did the relative viability turn out when NCI-H2170 was run?
A: 0.843

Q: Which relative viability does the source give for NCI-H2347 here?
A: 0.718

Q: With NCI-H2405 as the cell line, how does the relative viability read?
A: 0.71

Q: PC-3 [JPC-3] was tested. Which relative viability did it give?
A: 0.761

Same assay, conditions: first compound 0.3162 µM

Q: For LOU-NH91, which relative viability is on record?
A: 0.732

Q: For LU99A, which relative viability is on record?
A: 0.312

Q: For LXF-289, which relative viability is on record?
A: 1.17

Q: NCI-H23 was tested. Which relative viability did it give?
A: 0.232

Q: NCI-H322M was tested. Which relative viability did it give?
A: 0.595

Q: With NCI-H358 as the cell line, how does the relative viability read?
A: 0.501

Q: With NCI-H441 as the cell line, how does the relative viability read?
A: 1.14

Q: How did the relative viability turn out when NCI-H460 was run?
A: 0.558

Q: How did the relative viability turn out when NCI-H596 was run?
A: 1.22

Q: NCI-H647 was tested. Which relative viability did it give?
A: 0.58

Q: For NCI-H650, which relative viability is on record?
A: 0.932

Q: Which relative viability does the source give for NCI-H727 here?
A: 0.543

Q: Which relative viability does the source give for NCI-H838 here?
A: 1

Q: NCI-H1355 was tested. Which relative viability did it give?
A: 0.804

Q: For NCI-H1395, which relative viability is on record?
A: 0.406

Q: For NCI-H1437, which relative viability is on record?
A: 1.15

Q: How did the relative viability turn out when NCI-H1651 was run?
A: 0.518

Q: How did the relative viability turn out when NCI-H1666 was run?
A: 0.84

Q: For NCI-H1734, which relative viability is on record?
A: 0.603

Q: For NCI-H1755, which relative viability is on record?
A: 0.516

Q: NCI-H1792 was tested. Which relative viability did it give?
A: 0.68

Q: With NCI-H1793 as the cell line, how does the relative viability read?
A: 0.748

Q: Which relative viability does the source give for NCI-H1915 here?
A: 0.704

Q: For NCI-H1944, which relative viability is on record?
A: 0.44

Q: With NCI-H1975 as the cell line, how does the relative viability read?
A: 0.701

Q: For NCI-H1993, which relative viability is on record?
A: 0.841

Q: Which relative viability does the source give for NCI-H2085 here?
A: 1.12

Q: How did the relative viability turn out when NCI-H2087 was run?
A: 1.51

Q: NCI-H2126 was tested. Which relative viability did it give?
A: 1.04

Q: For NCI-H2170, which relative viability is on record?
A: 0.932

Q: NCI-H2347 was tested. Which relative viability did it give?
A: 0.506

Q: For NCI-H2405, which relative viability is on record?
A: 0.736

Q: Which relative viability does the source give for NCI-H3122 here?
A: 0.998

Q: How did the relative viability turn out when PC-3 [JPC-3] was run?
A: 0.957

Same assay, conditions: first compound 1 µM

Q: How did the relative viability turn out when LOU-NH91 was run?
A: 0.69

Q: For LU99A, which relative viability is on record?
A: 0.424

Q: For LXF-289, which relative viability is on record?
A: 1

Q: Which relative viability does the source give for NCI-H23 here?
A: 0.25

Q: NCI-H322M was tested. Which relative viability did it give?
A: 0.507

Q: How did the relative viability turn out when NCI-H358 was run?
A: 0.586

Q: Which relative viability does the source give for NCI-H441 here?
A: 1.23

Q: For NCI-H460, which relative viability is on record?
A: 0.323

Q: NCI-H596 was tested. Which relative viability did it give?
A: 1.23

Q: How did the relative viability turn out when NCI-H647 was run?
A: 0.431

Q: How did the relative viability turn out when NCI-H650 was run?
A: 0.943

Q: Which relative viability does the source give for NCI-H727 here?
A: 0.463

Q: NCI-H838 was tested. Which relative viability did it give?
A: 0.957

Q: Which relative viability does the source give for NCI-H1355 here?
A: 0.822

Q: How did the relative viability turn out when NCI-H1395 was run?
A: 0.39

Q: How did the relative viability turn out when NCI-H1437 was run?
A: 1.09

Q: Which relative viability does the source give for NCI-H1651 here?
A: 0.422

Q: How did the relative viability turn out when NCI-H1666 was run?
A: 0.795

Q: With NCI-H1734 as the cell line, how does the relative viability read?
A: 0.531

Q: NCI-H1755 was tested. Which relative viability did it give?
A: 0.474

Q: With NCI-H1792 as the cell line, how does the relative viability read?
A: 0.6

Q: For NCI-H1793, which relative viability is on record?
A: 0.436

Q: With NCI-H1915 as the cell line, how does the relative viability read?
A: 0.733

Q: Which relative viability does the source give for NCI-H1944 here?
A: 0.485

Q: For NCI-H1975, which relative viability is on record?
A: 0.766
